Where a SMILES comes first, the peptide text is derived from it.
Target: T1, KcsA-Kv1.1 T-only chimera (Streptomyces lividans, UniProt P0A334, R52A/G53E/A54E/P55A/G56E/A57S/Q58H/L59F/I60S/T61S/Y62I/R64D)
T1 sequence (P0A334 1-160 R52A/G53E/A54E/P55A/G56E/A57S/Q58H/L59F/I60S/T61S/Y62I/R64D): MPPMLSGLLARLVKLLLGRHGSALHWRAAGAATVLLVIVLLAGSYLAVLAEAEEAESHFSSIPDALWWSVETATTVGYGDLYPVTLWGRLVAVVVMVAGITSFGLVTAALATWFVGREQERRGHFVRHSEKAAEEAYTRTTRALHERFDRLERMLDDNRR
Test: Phage-binding competition assay, KcsA-Kv1.1 T-only
Set-up: species or system human Kv1.1 turret in Streptomyces lividans KcsA
Conditions: for competition binding to KcsA-Kv1.1 T-only, in words: ShK-phage competition, native peptide, Fig. 8E (ligand-binding pattern); for Rank, T-only chimera (Kv1.1): rank by competition IC50 among ShK, KTX1, MTX
Method: Phage stock solutions were diluted to working concentration with phage resuspension buffer supplemented with 2 mM DDM. For protein immobilization, the following amounts were used in a final volume of 50 μl/well: wt KcsA, 0.1 μg; KcsA-Kv1.1 T-only, 0.005 μg; KcsA-Kv1.1 T+F, 0.02 μg; KcsA-Kv1.2 T-only, 0.01 μg; KcsA-Kv1.2 T+F, 0.1 μg; KcsA-Kv1.3 T-only, 0.01 μg; and KcsA-Kv1.3 T+F, 0.1 μg. Protein samples were diluted in 50 μl of storage buffer (20 mM Tris pH8.0, 300 mM KCl, 2 mM DDM) and were added to the designated wells of a Pierce Clear, 96-Well Nickel Coated Plate (15442, Thermo Fisher Scientific), then incubated for 1 h at room temperature on a horizontal shaker at 130 rpm. The plate was blocked for 1 h at room temperature with 180 μl/well TBS-BSA supplemented with 1 mM DDM. Following blocking, the wells were washed 4× with washing buffer (300 μl TBS-Tween, 0.1% v/v) using a Wellwash Versa microplate washer (Thermo Fisher Scientific); then 50 μl phage solution (in TBS-BSA-Tween, 0.1% v/v, 2 mM DDM) at determined phage concentration was added to the wells and incubated for 1 h at room temperature on a horizontal shaker. The plate was washed 4× with washing buffer, then 50 μl anti-M13 IgG HRP (MA5-36125, Invitrogen) diluted to 1:2500 in TBS-Tween (0.1% v/v) was added to the wells and incubated for 1 h at room temperature. The plate was washed again 4× with 300 μl/well washing buffer. Finally, 50 μl/well 1-Step Ultra TMB-ELISA solution (34028, Thermo Fisher Scientific) was added to the wells, and the developing signal was stopped with 50 μl 1M HCl after 5 to 10 min. The light absorbance signal was read at 450 nm with Byonoy absorbance 96 plate reader (Byonoy GmbH).
For protein immobilization, the following amounts were used in a final volume of 50 μl/well: KcsA-Kv1.1 T-only, 0.005 μg; KcsA-Kv1.1 T+F, 0.01 μg; KcsA-Kv1.2 T-only, 0.025 μg; KcsA-Kv1.2 T+F, 0.0125 μg; KcsA-Kv1.3 T-only, 0.01 μg; and KcsA-Kv1.3 T+F, 0.1 μg. Protein samples were diluted in storage buffer. Binding of given concentrations of relevant ligand-displaying phages quantified by light absorbance ([…]) were investigated in a similar manner as in phage ELISA-binding assay, while different concentrations of competing toxin test substances were applied simultaneously. The results were converted to percent inhibitions (percent displacement) of the indicator phage binding, and relative affinities of the tested toxins were assessed by plotting percent displacements against log concentrations and determining half maximal inhibitory concentrations (IC50) by sigmoidal curve fitting using “Sigmoidal dose-response (variable slope) with least squares method” algorithm in GraphPad Prism 8 using the following equation: Y=Bottom+Top−Bottom/1+10^(LogEC50−×)⋅HillSlope

SMILES	competition binding to KcsA-Kv1.1 T-only, in words	competition binding to KcsA-Kv1.1 T-only, in words (listed as MTX1)	Rank, T-only chimera (Kv1.1)
CC[C@H](C)[C@@H]1NC(=O)[C@@H]2CSSC[C@H](NC(=O)[C@H](CO)NC(=O)[C@@H](N)C(C)C)C(=O)N[C@@H]([C@@H](C)O)C(=O)NCC(=O)N[C@@H](CO)C(=O)N[C@@H](CCCCN)C(=O)N[C@@H](CC(=O)O)C(=O)N[C@@H](CSSC[C@@H](C(=O)N[C@@H](CCCCN)C(=O)N[C@H]3CSSC[C@@H](C(N)=O)NC(=O)CNC(=O)[C@H](Cc4ccc(O)cc4)NC3=O)NC(=O)[C@H](CO)NC(=O)[C@H](CCCCN)NC(=O)[C@H](CC(N)=O)NC1=O)C(=O)N[C@@H](Cc1ccc(O)cc1)C(=O)N[C@@H](C)C(=O)N1CCC[C@H]1C(=O)N[C@H]1CSSC[C@H](NC(=O)CNC(=O)[C@H]([C@@H](C)O)NC(=O)[C@H](CCC(N)=O)NC(=O)[C@H](CCCCN)NC(=O)[C@H](CCCNC(=N)N)NC1=O)C(=O)N1CCC[C@H]1C(=O)N[C@@H](CC(N)=O)C(=O)N[C@@H](C)C(=O)N[C@@H](CCCCN)C(=O)N2 [MTX, Maurotoxin] (HELM PEPTIDE1{V.S.C.T.G.S.K.D.C.Y.A.P.C.R.K.Q.T.G.C.P.N.A.K.C.I.N.K.S.C.K.C.Y.G.C.[am]}$PEPTIDE1,PEPTIDE1,3:R3-24:R3|PEPTIDE1,PEPTIDE1,9:R3-29:R3|PEPTIDE1,PEPTIDE1,13:R3-19:R3|PEPTIDE1,PEPTIDE1,31:R3-34:R3$$$V2.0; N-terminus and C-terminus assumed)	ShK > KTX1 > MTX	negligible binding	3
CC[C@H](C)[C@H](NC(=O)[C@H](CCC(=O)O)NC(=O)[C@@H](NC(=O)CN)C(C)C)C(=O)N[C@@H](CC(N)=O)C(=O)N[C@H](C(=O)N[C@@H](CCCCN)C(=O)N[C@H]1CSSC[C@@H]2NC(=O)[C@H](CCCCN)NC(=O)CNC(=O)[C@H](Cc3ccccc3)NC(=O)[C@H](CCCNC(=N)N)NC(=O)[C@H](CCSC)NC(=O)CNC(=O)[C@H](C)NC(=O)[C@H](CC(=O)O)NC(=O)[C@H](CCCCN)NC(=O)[C@@H]3CSSC[C@@H](C(=O)N[C@H](C(=O)N4CCC[C@H]4C(=O)N[C@@H](CCCCN)C(=O)O)[C@@H](C)O)NC(=O)[C@H](Cc4c[nH]cn4)NC(=O)[C@H](CSSC[C@H](NC(=O)[C@H](CCC(N)=O)NC(=O)[C@@H]4CCCN4C(=O)[C@H](CO)NC(=O)CNC(=O)[C@H](CO)NC1=O)C(=O)N[C@@H](CC(C)C)C(=O)N[C@@H](CCCCN)C(=O)N1CCC[C@H]1C(=O)N3)NC(=O)[C@H](CCCCN)NC(=O)[C@H](CCCNC(=N)N)NC(=O)[C@H](CC(N)=O)NC(=O)[C@H](CCSC)NC2=O)C(C)C [KTX1, Kaliotoxin-1]	ShK > KTX1 > MTX	–	2
CC[C@H](C)[C@@H]1NC(=O)[C@@H](NC(=O)[C@H](CO)NC(=O)[C@@H](N)CCCNC(=N)N)CSSC[C@@H](C(=O)O)NC(=O)[C@H]([C@@H](C)O)NC(=O)CNC(=O)[C@@H]2CSSC[C@@H]3NC(=O)[C@H](CCC(N)=O)NC(=O)[C@H](Cc4ccccc4)NC(=O)[C@H](C)NC(=O)[C@H]([C@@H](C)O)NC(=O)[C@H](CSSC[C@H](NC(=O)[C@H](Cc4ccccc4)NC(=O)[C@H](CO)NC(=O)[C@H](CC(C)C)NC(=O)[C@H](CCCNC(=N)N)NC(=O)[C@H](Cc4ccc(O)cc4)NC(=O)[C@H](CCCCN)NC(=O)[C@H](CCSC)NC(=O)[C@H](CO)NC(=O)[C@H](Cc4c[nH]cn4)NC(=O)[C@H](CCCCN)NC3=O)C(=O)N[C@@H](CCCNC(=N)N)C(=O)N[C@@H](CCCCN)C(=O)N[C@@H]([C@@H](C)O)C(=O)N2)NC(=O)[C@H](CCCNC(=N)N)NC(=O)[C@H](CO)NC(=O)[C@H](CCCCN)NC(=O)[C@@H]2CCCN2C(=O)[C@H]([C@@H](C)CC)NC(=O)[C@H]([C@@H](C)O)NC(=O)[C@H](CC(=O)O)NC1=O [ShK, Stichodactyla toxin]	ShK > KTX1 > MTX	–	1

— paper PMC11002876, “KcsA-Kv1.x chimeras with complete ligand-binding sites provide improved predictivity for screening selective Kv1.x blockers” (The Journal of Biological Chemistry, 2024)
